Consider 14 compounds from publication PMC7913237, “Small-Molecule Anti-HIV-1 Agents Based on HIV-1 Capsid Proteins” (Biomolecules, 2021).

Where two headings read alike, the source gives them in different places. Where only a bound is given, the exact number is not on record here.

What all share (format): cell-based
Data set [1] relates to X4-HIV-1 (NL4-3 strain). In words: Anti-HIV activity: protection against HIV-1 (NL4-3 strain)-induced cytopathogenicity in MT-4 cells, MTT assay. The following applies: for EC50: 50% protection from HIV-1 (NL4-3 strain)-induced cytopathogenicity in MT-4 cells, 5 days, mean or mean ± SD; for inhibition at 25 µM: Human immunodeficiency virus 1, NL43, MT4, HIV-1 (NL4-3)-induced cytopathogenicity in MT-4 cells, printed in EC50 column; for anti-HIV activity (in words): summary of MTT assay results. The procedure: (§1) For virus preparation, 293T/17 cells (Invitrogen), which are maintained in Dulbecco’s modified Eagle medium (DMEM) containing 10% FBS, in a T-75 flask were transfected with 10 μg of the pNL4-3 construct by the calcium phosphate method. The supernatant was collected 48 h after transfection, passed through a 0.45 μm filter, and stored at −80 °C as a stock virus. Inhibitory activities of test compounds against X4-HIV-1 (NL4-3 strain)-induced cytopathogenicity in MT-4 cells, which are maintained in RPMI-1640 containing 10% FBS, were assessed by the MTT assay. Various concentrations of test compound solutions were added to HIV-1-infected MT-4 cells at multiplicity of infection (MOI) of 0.001, and placed in wells of a 96-well microplate. The test compounds and the reference compounds such as AZT and AMD3100 were diluted by two-fold and five-fold, respectively. After 5 days’ incubation at 37 °C in a CO2 incubator, the number of viable cells was determined by the MTT assay. Cytotoxicities of the test compounds were determined based on reduction of the viability of MT-4 cells by the MTT assay. The p24 antigen content in the culture supernatant was measured using HIV-1 p24 antigen enzyme-linked immunosorbent assay (ELISA) kit according to manufacturer’s instructions (Zeptometrix, Buffalo, NY, USA). A reverse transcriptase inhibitor, AZT, a CXCR4 antagonist, AMD3100 (Sigma Aldrich, St. Louis, MO, USA) were employed as positive control compounds with anti-HIV activity.
(§2) The anti-HIV activity of the synthesized compounds was assessed based on protection against HIV-1 (NL4-3 strain)-induced cytopathogenicity in MT-4 cells by an MTT assay. The cytotoxicity of these compounds was determined based on reduction of the viability of MT-4 cells determined by an MTT assay.
On the technique in general: Protection from cytopathic effect is a common read-out in antiviral testing.

The nature of data set [2]: Cytotoxicity: reduction of the viability of MT-4 cells, MTT assay. The note with it: human, MT-4 cells, 50% reduction of the viability of MT-4 cells. As to the method: as §1, §2
(In general: Tetrazolium dyes change colour on reduction, which living cells bring about.)

The test system of data set [3] is HIV-1 (NL4-3 strain) p24 antigen production. In words: microbe, parasite or virus in culture. The procedure: as §1
These compounds were also evaluated by a different method, using an enzyme-linked immune sorbent assay (ELISA) based on their inhibitory effect against the viral p24 antigen expression in NL4-3 strain-infected MT-4 cells.

Data set [4] has as its system MT-4 cells. In words: Cytotoxicity: reduction of the viability of MT-4 cells, MTT assay. The following applies: for CC50: 50% reduction of the viability of MT-4 cells; for cytotoxicity (in words): MT-4 cells MTT assay; for concentration below which no cytotoxicity was exhibited: MT-4 cells. The procedure: as §1, §2
Where [5] appears, read: Human immunodeficiency virus 1, NL43, MT4, 120 h.
Where [6] appears, read: Human immunodeficiency virus 1, NL43, MT4, read-out: p24 ELISA EC50, 50% inhibition of viral p24 antigen production in NL4-3 strain-infected MT-4 cells.

As for `c1cc(CN2CCCNCCNCCCNCC2)ccc1CN1CCCNCCNCCCNCC1` [AMD3100, reference compound], the EC50 was found to be 0.027 ± 0.0077 µM in data set [1] (setting [5]) and 0.029 µM in data set [3] (setting [6]). The CC50 at 5 days in data set [2] is more than 50 µM.
Consider `Cc1cn([C@H]2C[C@H](N=[N+]=[N-])[C@@H](CO)O2)c(=O)[nH]c1=O` [AZT, reference compound], for which the half-maximal effective concentration (EC50) in data set [1] stood at 0.024 ± 0.015 µM; in data set [3] (50% inhibition of viral p24 antigen production in NL4-3 strain-infected MT-4 cells, read-out: p24 ELISA EC50), 0.047 µM. In data set [4], this compound had a CC50 of 79 ± 42 µM.
In the case of `CSCC[C@H](C)OC(=O)[C@@H](N)c1ccccc1-c1cccc2ccccc12` [Compound 22], in data set [1], the inhibition at 25 µM amounted to 31 ± 8.5% and the “anti-HIV activity (in words)” value was “weak anti-HIV activity”. The same compound showed a CC50 at 5 days in data set [2] of 33 ± 1.5 µM. Further, the “cytotoxicity (in words)” value in data set [4] was “relatively weak cytotoxicity”.
Turning to `CSCC[C@H](C)OC(=O)[C@@H](N)c1ccccc1-c1ccc2ccccc2c1` [Compound 24], in data set [1], at 25 µM the inhibition was 40 ± 4.6% and the “anti-HIV activity (in words)” value is “weak anti-HIV activity”. In data set [2], the 50% cytotoxic concentration (CC50) at 5 days was 30 ± 2 µM. The “cytotoxicity (in words)” value in data set [4] is given as “relatively weak cytotoxicity”.
Turning to `CSCC[C@H](C)OC(=O)[C@@H](N)c1ccccc1-c1coc2ccccc12` [Compound 27], in data set [1], the inhibition at 25 µM came to 11% and the “anti-HIV activity (in words)” value is “weak anti-HIV activity”. Further, the CC50 at 5 days in data set [2] worked out at 34 µM. For the same compound, the “cytotoxicity (in words)” value in data set [4] was “relatively weak cytotoxicity”.
Take `CSCC[C@H](C)OC(=O)[C@@H](N)c1ccccc1-c1csc2ccccc12` [Compound 28]: in data set [1], the inhibition at 25 µM came to 31% and the “anti-HIV activity (in words)” value is recorded as “weak anti-HIV activity”. Also, the CC50 at 5 days in data set [2] was 45 µM. For the same compound, the “cytotoxicity (in words)” value in data set [4] was “relatively weak cytotoxicity”.
Turning to `COCC[C@H](C)OC(=O)[C@@H](N)c1ccccc1-c1c[nH]c2ccccc12` [Compound 30], a half-maximal response in data set [1] (setting [5]) (EC50) required 26 ± 2.9 µM. Besides, in data set [1], the “anti-HIV activity (in words)” value is “weak anti-HIV activity”. This compound displayed a cytotoxic concentration (CC50) at 5 days in data set [2] of more than 50 µM. Also, the “concentration below which no cytotoxicity was exhibited” value in data set [4] was not below 50 µM.
Take `C[C@@H](CCSC(C)(C)C)OC(=O)[C@@H](N)c1ccccc1-c1c[nH]c2ccccc12` [Compound 34]: the EC50 in data set [1] (setting [5]) was 12 µM. The same compound had a CC50 at 5 days in data set [2] of 17 µM.
`CC(C)SCC[C@H](C)OC(=O)[C@@H](N)c1ccccc1-c1c[nH]c2ccccc12` [Compound 35] came in with an EC50 in data set [1] (setting [5]) of 10 µM. Further, in data set [2], the cytotoxic concentration (CC50) at 5 days was 18 µM.
In data set [1] (setting [5]), `C[C@@H](CCSc1ccccc1)OC(=O)[C@@H](N)c1ccccc1-c1c[nH]c2ccccc12` [Compound 36] showed an EC50 of 11 µM. The CC50 at 5 days in data set [2] came out at 17 µM.
As to `C[C@@H](CCS(C)(=O)=O)OC(=O)[C@@H](N)c1ccccc1-c1c[nH]c2ccccc12` [Compound 38], in data set [1], testing at 25 µM gave an inhibition of 34% and the “anti-HIV activity (in words)” value is “weak anti-HIV activity”. For the same compound, in data set [2], the cytotoxic concentration (CC50) at 5 days was more than 50 µM. Further, the “concentration below which no cytotoxicity was exhibited” value in data set [4] is not below 50 µM.
Regarding `CSCC[C@H](C)OC(=O)[C@@H](N)c1ccccc1-c1c[nH]c2ccccc12` [MKN-1 (1)], the EC50 in data set [1] was 4.5 ± 2.3 µM; in data set [3] (read-out: p24 ELISA EC50, 50% inhibition of viral p24 antigen production in NL4-3 strain-infected MT-4 cells) it was 8.5 µM. Also, the “anti-HIV activity (in words)” value in data set [1] was “high anti-HIV activity”. For the same compound, the midpoint of cytotoxicity in data set [4], the CC50, lay at 26 ± 8.8 µM.
As for `CSCC[C@H](C)OC(=O)[C@@H](N)c1ccccc1-c1c[nH]c2ccccc12` [MKN-1A (1A)], the EC50 in data set [1] (setting [5]) was determined as 8 µM; in data set [3] (setting [6]), 14 µM. The “anti-HIV activity (in words)” value in data set [1] is “significant anti-HIV activity”. Further, in data set [2], half-maximal cytotoxicity (CC50 at 5 days) was put at 38 µM.
On to `CSCC[C@@H](C)OC(=O)[C@@H](N)c1ccccc1-c1c[nH]c2ccccc12` [MKN-1B (1B)], for which the EC50 in data set [1] (setting [5]) was found to be 24 µM; in data set [3] (setting [6]), 22 µM. Moreover, the “anti-HIV activity (in words)” value in data set [1] is listed as “moderate anti-HIV activity”. Moreover, in data set [2], it took 37 µM to reach half-maximal cytotoxicity (CC50 at 5 days).

In general, EC50 refers to the concentration that produces a half-maximal response. Usually CC50 stands for the concentration that lowers cell viability or growth by half. In general, inhibition refers to the drop in the measured response relative to a control, in per cent. High values mean a strong effect, low ones a weak effect.
